Experimental data: US12486489B2, “Culture medium for testing drug resistance of H.pylori as well as preparation method and use thereof” (priority 2022, dated 2025)

Experiments:
H. pylori [1] = assay: Effects of NiCl2 on H. pylori on culture medium (50 mL Colombian culture medium with 80 mg urea and 0.4 mg phenol red); format: cell-based, Helicobacter pylori; design: key to bacteria growth and discoloration: +: refers to a good bacteria growth after 36 hours of culture, with a discoloration; ++: refers to a good bacteria growth after 36 hours of culture, with an obvious discoloration; details: for bacteria growth and discoloration: 36 hours of culture
H. pylori [2] = assay: Effects of urea and phenol red on H. pylori on Columbia culture medium; format: cell-based, Helicobacter pylori; details: for bacterial growth: 1 × 10^6 CFU/mL; for effect on the growth of H. pylori: strains G27 and 287, 72 hours

[Cl][Ni][Cl] [NiCl2, nickel chloride]
recognition of the discoloration reaction (H. pylori [1]; NiCl2 100 μmol/L): has reached its maximum
sensitivity and identification of the discoloration reaction (H. pylori [1]; NiCl2 1 μMol/L to 200 μMol/L, 80 mg urea, 0.4 mg phenol red, pH 7.15 to 7.35): the sensitivity and identification of the discoloration reaction are further improved
bacteria growth and discoloration (H. pylori [1]; strain 159, NiCl2 1 μmol/L): +
bacteria growth and discoloration (H. pylori [1]; strain 159, NiCl2 10 μmol/L): +
bacteria growth and discoloration (H. pylori [1]; strain 159, NiCl2 100 μmol/L): ++
bacteria growth and discoloration (H. pylori [1]; strain 161, NiCl2 1 μmol/L): +
bacteria growth and discoloration (H. pylori [1]; strain 161, NiCl2 10 μmol/L): +
bacteria growth and discoloration (H. pylori [1]; strain 161, NiCl2 100 μmol/L): ++
bacteria growth and discoloration (H. pylori [1]; strain 162, NiCl2 1 μmol/L): +
bacteria growth and discoloration (H. pylori [1]; strain 162, NiCl2 10 μmol/L): +
bacteria growth and discoloration (H. pylori [1]; strain 162, NiCl2 100 μmol/L): ++
bacteria growth and discoloration (H. pylori [1]; strain 163, NiCl2 1 μmol/L): +
bacteria growth and discoloration (H. pylori [1]; strain 163, NiCl2 10 μmol/L): +
bacteria growth and discoloration (H. pylori [1]; strain 163, NiCl2 100 μmol/L): ++
bacteria growth and discoloration (H. pylori [1]; strain 286, NiCl2 1 μmol/L): +
bacteria growth and discoloration (H. pylori [1]; strain 286, NiCl2 10 μmol/L): +
bacteria growth and discoloration (H. pylori [1]; strain 286, NiCl2 100 μmol/L): ++
bacteria growth and discoloration (H. pylori [1]; strain 287, NiCl2 1 μmol/L): +
bacteria growth and discoloration (H. pylori [1]; strain 287, NiCl2 10 μmol/L): +
bacteria growth and discoloration (H. pylori [1]; strain 287, NiCl2 100 μmol/L): ++
bacteria growth and discoloration (H. pylori [1]; strain 289, NiCl2 1 μmol/L): +
bacteria growth and discoloration (H. pylori [1]; strain 289, NiCl2 10 μmol/L): +
bacteria growth and discoloration (H. pylori [1]; strain 289, NiCl2 100 μmol/L): ++
bacteria growth and discoloration (H. pylori [1]; strain 290, NiCl2 1 μmol/L): +
bacteria growth and discoloration (H. pylori [1]; strain 290, NiCl2 10 μmol/L): +
bacteria growth and discoloration (H. pylori [1]; strain 290, NiCl2 100 μmol/L): ++
bacteria growth and discoloration (H. pylori [1]; strain 26695, NiCl2 1 μmol/L): +
bacteria growth and discoloration (H. pylori [1]; strain 26695, NiCl2 10 μmol/L): +
bacteria growth and discoloration (H. pylori [1]; strain 26695, NiCl2 100 μmol/L): ++
bacteria growth and discoloration (H. pylori [1]; strain G27, NiCl2 1 μmol/L): +
bacteria growth and discoloration (H. pylori [1]; strain G27, NiCl2 10 μmol/L): +
bacteria growth and discoloration (H. pylori [1]; strain G27, NiCl2 100 μmol/L): ++

NC(N)=O [Urea, urea]
maximum value of added urea without affecting the growth of H. pylori (H. pylori [2]; in 50 mL Colombian culture medium): 80 mg
bacterial growth (H. pylori [2]; strain 159, urea 60 mg): ++
bacterial growth (H. pylori [2]; strain 159, urea 80 mg): ++
bacterial growth (H. pylori [2]; strain 159, urea 100 mg): +
bacterial growth (H. pylori [2]; strain 159, urea 120 mg): +
bacterial growth (H. pylori [2]; strain 159, urea 240 mg): −
bacterial growth (H. pylori [2]; strain 161, urea 60 mg): ++
bacterial growth (H. pylori [2]; strain 161, urea 80 mg): ++
bacterial growth (H. pylori [2]; strain 161, urea 100 mg): +
bacterial growth (H. pylori [2]; strain 161, urea 120 mg): +
bacterial growth (H. pylori [2]; strain 161, urea 240 mg): −
bacterial growth (H. pylori [2]; strain 162, urea 60 mg): ++
bacterial growth (H. pylori [2]; strain 162, urea 80 mg): ++
bacterial growth (H. pylori [2]; strain 162, urea 100 mg): +
bacterial growth (H. pylori [2]; strain 162, urea 120 mg): +
bacterial growth (H. pylori [2]; strain 162, urea 240 mg): −
bacterial growth (H. pylori [2]; strain 163, urea 60 mg): ++
bacterial growth (H. pylori [2]; strain 163, urea 80 mg): ++
bacterial growth (H. pylori [2]; strain 163, urea 100 mg): +
bacterial growth (H. pylori [2]; strain 163, urea 120 mg): +
bacterial growth (H. pylori [2]; strain 163, urea 240 mg): −
bacterial growth (H. pylori [2]; strain 286, urea 60 mg): ++
bacterial growth (H. pylori [2]; strain 286, urea 80 mg): ++
bacterial growth (H. pylori [2]; strain 286, urea 100 mg): +
bacterial growth (H. pylori [2]; strain 286, urea 120 mg): +
bacterial growth (H. pylori [2]; strain 286, urea 240 mg): −
bacterial growth (H. pylori [2]; strain 287, urea 60 mg): ++
bacterial growth (H. pylori [2]; strain 287, urea 80 mg): ++
bacterial growth (H. pylori [2]; strain 287, urea 100 mg): +
bacterial growth (H. pylori [2]; strain 287, urea 120 mg): +
bacterial growth (H. pylori [2]; strain 287, urea 240 mg): −
bacterial growth (H. pylori [2]; strain 289, urea 60 mg): ++
bacterial growth (H. pylori [2]; strain 289, urea 80 mg): ++
bacterial growth (H. pylori [2]; strain 289, urea 100 mg): +
bacterial growth (H. pylori [2]; strain 289, urea 120 mg): +
bacterial growth (H. pylori [2]; strain 289, urea 240 mg): −
bacterial growth (H. pylori [2]; strain 290, urea 60 mg): ++
bacterial growth (H. pylori [2]; strain 290, urea 80 mg): ++
bacterial growth (H. pylori [2]; strain 290, urea 100 mg): +
bacterial growth (H. pylori [2]; strain 290, urea 120 mg): +
bacterial growth (H. pylori [2]; strain 290, urea 240 mg): −
bacterial growth (H. pylori [2]; strain 26695, urea 60 mg): ++
bacterial growth (H. pylori [2]; strain 26695, urea 80 mg): ++
bacterial growth (H. pylori [2]; strain 26695, urea 100 mg): +
bacterial growth (H. pylori [2]; strain 26695, urea 120 mg): +
bacterial growth (H. pylori [2]; strain 26695, urea 240 mg): −
bacterial growth (H. pylori [2]; strain G27, urea 60 mg): ++
bacterial growth (H. pylori [2]; strain G27, urea 80 mg): ++
bacterial growth (H. pylori [2]; strain G27, urea 100 mg): +
bacterial growth (H. pylori [2]; strain G27, urea 120 mg): +
bacterial growth (H. pylori [2]; strain G27, urea 240 mg): −
effect on the growth of H. pylori (H. pylori [2]; urea 60 mg in 50 mL Colombian culture medium): no effect on the growth of H. pylori
effect on the growth of H. pylori (H. pylori [2]; urea 120 mg to 240 mg in 50 mL Colombian culture medium): the growth is not good
